Source: PubChem BioAssay (NCI)
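Values below derive from 48-hour exposures of cells grown in 96-well plates, with endpoints linearly interpolated between the two concentrations bracketing the appropriate inhibition level. Definition used: TGI = concentration required for complete inhibition of growth.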

Experiments:
Test in all cases: DTP human tumour cell line panel, 48 h
SK-MEL-28 melanoma = test system: SK-MEL-28 melanoma
COLO 205 colon = test system: COLO 205 colon
SNB-19 CNS = test system: SNB-19 CNS
NCI-H23 lung = test system: NCI-H23 lung
MCF7 breast = test system: MCF7 breast
M14 melanoma = test system: M14 melanoma
HCT-15 colon = test system: HCT-15 colon
CAKI-1 renal = test system: CAKI-1 renal
MOLT-4 leukemia = test system: MOLT-4 leukemia
HT29 colon = test system: HT29 colon
OVCAR-4 ovarian = test system: OVCAR-4 ovarian
SK-OV-3 ovarian = test system: SK-OV-3 ovarian
SN12C renal = test system: SN12C renal
NCI-H522 lung = test system: NCI-H522 lung
HCT-116 colon = test system: HCT-116 colon
OVCAR-3 ovarian = test system: OVCAR-3 ovarian
SF-268 CNS = test system: SF-268 CNS
HOP-62 NSCLC = test system: HOP-62 NSCLC
CCRF-CEM leukemia = test system: CCRF-CEM leukemia
LOX IMVI melanoma = test system: LOX IMVI melanoma

Measured: TGI

CN(C)CC(CN(C)C)c1ccccn1
> 100 µM: all assays above
